Measured values as given in US10123985B2, “Therapeutic strategies for treating mitochondrial disorders” (Whitehead Institute for Biomedical Research, priority 2015, dated 2018).
“Also recorded” adds a separate entry of the source.

Assays:
[1] = tested on: 143B CytB cells; assay: Proliferation assay of respiration-incompetent 143B CytB cybrid cells; type: cell-based; conditions: for Proliferation rate of 143B CytB cells: media supplemented with the substance, no pyruvate unless tested, uridine present
Experimental: FL5.12 cells were cultured in the same medium and supplemented with 5 μg/mL recombinant mouse IL-3 (R&D Systems). […] All cells incubated at 37° C. with 5% CO2.
Adherent cell lines growing in log phase were trypsinized, counted, and plated onto 6 well dishes (Corning) in 2 mL complete DMEM and incubated overnight. […] The following day, one plate of cells was counted to determine the initial cell count at the time of treatment. Cells were washed 2 times with 2 mL phosphate buffered saline (PBS) and 4 mL media premixed with the indicated treatments was added. FL5.12 cells, a suspension cell line, were washed 2 times in PBS and added directly to media containing the indicated treatments and 5 μg/mL recombinant mouse IL-3. Proliferation rate assay media was DMEM without pyruvate containing 10% dialyzed FBS, penicillin-streptomycin, and 0.1 mg/mL uridine, unless otherwise noted. […] Cells were counted using Cellometer Auto T4 Plus Cell Counter (Nexcelom Bioscience). Proliferation rate was determined using the following formula: Proliferation Rate (Doublings per day)=(log2(Final cell count (day 5)/Initial cell count (day 1))/4 (days)

[2] = tested on: A172, H1299, HeLa, U87, FL5.12, and MEF cell lines; assay: Proliferation assay of a panel of cell lines treated with respiration inhibitors; type: cell-based; conditions: rotenone, antimycin or oligomycin plus the substance
Experimental: (§1) 143B, A172, H1299, HeLa, U87 and MEF cells were cultured in Dulbecco's Modified Eagle's Medium (DMEM) (Gibco) supplemented with 10% fetal bovine serum (FBS) and penicillin-streptomycin. FL5.12 cells were cultured in the same medium and supplemented with 5 μg/mL recombinant mouse IL-3 (R&D Systems). 143B cybrid cell lines (WT Cybrid and CytB) were cultured in DMEM with 10% FBS, penicillin-streptomycin, and 0.1 mg/mL uridine. All cells incubated at 37° C. with 5% CO2.
(§2) Adherent cell lines growing in log phase were trypsinized, counted, and plated onto 6 well dishes (Corning) in 2 mL complete DMEM and incubated overnight. Initial seeding density was 2E4 cells per well for 143B, A172, H1299, HeLa, 143B WT Cybrid, and MEFs and 3E4 cells for 143B CytB and U87 cells. The following day, one plate of cells was counted to determine the initial cell count at the time of treatment. Cells were washed 2 times with 2 mL phosphate buffered saline (PBS) and 4 mL media premixed with the indicated treatments was added. FL5.12 cells, a suspension cell line, were washed 2 times in PBS and added directly to media containing the indicated treatments and 5 μg/mL recombinant mouse IL-3. Proliferation rate assay media was DMEM without pyruvate containing 10% dialyzed FBS, penicillin-streptomycin, and 0.1 mg/mL uridine, unless otherwise noted. For these cell lines at these seeding densities it was determined that for 4 days the cells maintained logarithmic proliferation (data not shown), therefore final cell counts were measured 4 days after treatment. Cells were counted using Cellometer Auto T4 Plus Cell Counter (Nexcelom Bioscience). Proliferation rate was determined using the following formula: Proliferation Rate (Doublings per day)=(log2(Final cell count (day 5)/Initial cell count (day 1))/4 (days)

[3] = tested on: 143B CytB cells; assay: Measurement of NAD+/NADH (NAD/NADH Glo) in 143B CytB cells; type: cell-based; conditions: absence or presence of the substance
Experimental: NAD^+/NADH measurements were done using a modified version of manufacturer instructions of NAD/NADH Glo Assay (Promega). Cells were plated and treated as for proliferation assays and cell extracts were taken 6 hours after treatment. For extraction, cells were quickly washed 3 times in ice cold PBS, extracted in 100 μL ice cold lysis buffer (1% Dodecyltrimethylammonium bromide (DTAB) in 0.2 N NaOH diluted 1:1 with PBS), and immediately frozen at −80° C. To measure NADH, 20 μL of sample was moved to PCR tubes and incubated at 75° C. for 30 min, where the basic conditions will selectively degrade NAD^+. To measure NAD^+, 20 μL of the samples was moved to PCR tubes containing 20 μL lysis buffer and 20 μL 0.4 N HCl and incubated at 60° C. for 15 min, where acidic conditions will degrade NADH. Following incubations, samples were allowed to equilibrate to room temperature and then quenched by neutralizing with 20 μL 0.25 M Tris in 0.2 N HCl (NADH) or 20 μL 0.5 M Tris base (NAD^+). Manufacturer instructions were followed thereafter to measure NAD^+/NADH.

[4] = tested on: 143B WT cybrid cells; assay: Proliferation assay of respiration-competent 143B WT cybrid cells; type: cell-based; conditions: presence or absence of the substance
Experimental: as §1, §2

[5] = tested on: MERRF and CYTB cybrids, 143B ρ0 cells; assay: Cell counting assay of cybrids and 143B ρ0 cells; type: cell-based; conditions: 6 days; for Proliferation of ETC-deficient cybrids and 143B ρ0 cells: RPMI with uridine, pyruvate (1 mM) or aspartate (10 mM); for Proliferation of ETC-defective cybrids expressing sgGOT1: uridine and pyruvate (1 mM), with or without aspartate (10 mM)
Experimental: Cybrids or 143B ρ0 cells were plated in triplicate in 12 well plates at 5,000-20,000 cells per well in 1.5 mL as described in each experiment. After six days, the entire contents of the well was trypsinized and counted using a Beckman Z2 Coulter Counter with a size selection setting of 8-30 um.
Transmitochondrial cytoplasmic hybrid cells (cybrids) are commonly used to study the mechanisms through which mutations in mitochondrial DNA (mtDNA) impair cellular function (Schon et al., 2012). These cells harbor patient-derived mitochondrial genomes with pathogenic mutations, and, like cells treated with ETC inhibitors, require pyruvate to proliferate in culture (King and Attardi, 1989, 1996). To expand upon our work with pharmacological inhibition of the ETC, we asked if aspartate supplementation rescues the proliferation of cells with genetic ETC defects. We used two patient-derived cybrid cells, the first with a homoplasmic microdeletion in the cytochrome b subunit of complex III (CYTB) associated with a form of parkinsonism and encephalopathy (De Coo et al., 1999; Rana et al., 2000), and the second with a homoplasmic point mutation in the mitochondrially encoded tRNA lysine (MT-TK) associated with myoclonic epilepsy with ragged red fibers (MERRF) (Wallace et al., 1988). To characterize the metabolic needs of these cybrids, as well as cells lacking mtDNA (143B ρ0), we cultured them in media with or without pyruvate or aspartate.

[6] = tested on: Jurkat cells; assay: Proliferation assay (Cell Titer Glo, 5 days) of wild type and knock-out Jurkat cells; type: cell-based, human; conditions: 5 days
Experimental: sgRNAs (oligonucleotide sequences are indicated above) were cloned into lentiCRISPR-v1 linearized with BsmBI by Gibson Assembly (NEB). sgRNA expressing vector along with lentiviral packaging vectors Delta-VPR and CMV VSVG were transfected into HEK-293T cells using the XTremeGene 9 transfection reagent (Roche). Similarly, for overexpression cell lines, cDNA vectors along with retroviral packaging vectors gag-pol and CMV VSV-G were transfected into HEK-293T cells. Media was changed 24 hours after transfection.

[7] = pyruvate (1 mM), phenformin, piericidin, antimycin

SMILES | Uridine auxotrophy of 143B CytB cells ([1]; AKB in the presence or absence of uridine) | Proliferation rate of 143B CytB cells [1] | Proliferation of cell line panel with supplementation [2] | Cellular NAD+/NADH ratio [3] | Proliferation rate of 143B WT cybrid cells [4] | Proliferation of ETC-deficient cybrids and 143B ρ0 cells [5] | Proliferation of ETC-defective cybrids expressing sgGOT1 [5] | Cell permeability ([1]; inferred from supra-physiological doses required to restore growth) | Proliferation of phenformin-treated wild-type Jurkat cells with aspartate ([6]; aspartate (10 mM) in RPMI) | Viability and proliferation of phenformin-treated GOT1-null Jurkat cells with aspartate ([6]; aspartate (10 mM) in RPMI) | Proliferation of ETC inhibitor-treated MDH1-null Jurkat cells with pyruvate ([6]; pyruvate (1 mM)) | Proliferation of ETC inhibitor-treated PC-null Jurkat cells with pyruvate ([6]; pyruvate (1 mM), phenformin (10 μM), antimycin (1 μM) or piericidin (0.5 μM)) | Proliferation of ETC inhibitor-treated wild type Jurkat cells with pyruvate [6, 7] | Viability and proliferation of ETC inhibitor-treated GOT1-null Jurkat cells with pyruvate [6, 7]
CCC(=O)C(=O)O [AKB, α-ketobutyrate] | does not alleviate uridine auxotrophy of 143B CytB cells | rescued proliferation rate of 143B CytB cells to levels similar to what was observed with pyruvate addition | sufficient to restore proliferation in the presence of ETC inhibitors | sufficient to increase the cellular NAD^+/NADH ratio | does not impact proliferation of 143B WT cybrids |  |  |  |  |  |  |  |  | 
N[C@@H](CC(=O)O)C(=O)O [aspartate] |  | capable of supporting exponential growth of 143B CytB cells | rescued ETC inhibitor-induced proliferation decreases in all other cell lines tested | nor did it affect the NAD^+/NADH ratio | did not have gross proliferation differences | on its own enabled their proliferation; also recorded: can replace pyruvate in enabling the proliferation of patient-derived mtDNA mutant cybrids and 143B ρ0 cells | bypassed the need for GOT1; also recorded: can be bypassed by aspartate | nearly impermeable to cells | partially reversed the anti-proliferative effects of phenformin on wild-type cells | rescues death of GOT1-null cells upon ETC inhibition; also recorded: prevented the phenformin induced death of GOT1-null cells and even enabled these cells to proliferate in the presence of the drug |  |  |  | 
CC(=O)C(=O)O [pyruvate] |  | divide at a similar rate |  | sufficient to increase the cellular NAD^+/NADH ratio | divide at a similar rate; also recorded: does not impact proliferation of 143B WT cybrids | proliferated in media supplemented with pyruvate | requires GOT1; also recorded: enables the proliferation of patient-derived cybrid cells in a GOT1-dependent fashion |  |  |  | did not stimulate aspartate synthesis or rescue proliferation; also recorded: does not rescue the proliferation of phenformin-treated MDH1 null cells | still prevented the anti-proliferative effects of ETC inhibitors; also recorded: can rescue the death of PC-null cells induced by ETC inhibition | almost completely blocked the anti-proliferative effects of several ETC inhibitors | cannot rescue death of GOT1-null cells induced by ETC inhibitors; also recorded: no beneficial effect on the GOT1-null cells
